# Measured values taken from patent publication US9138424B2, “Methods and compositions for treating cornelia de lange syndrome” (Saint Louis University, priority 2012, dated 2015).
# Legend:
# [1] = system: yeast scc2 and mis4 mutants; assay: Growth of temperature-sensitive cohesin/NIPBL-ortholog mutant yeast strains at semipermissive temperature (optical density); type: cell-based, Saccharomyces cerevisiae; Schizosaccharomyces pombe; conditions: relative to vehicle control and parental strains, data not shown
# Text: (§1) PLoS One; 4(7):e6202, herein incorporated by reference.
# The Inventors began their screening with a library of FDA-approved drugs for their ability to improve the growth of yeast strains with temperature-sensitive mutations in the NIPBL homologs or orthologs. These included the scc2-4 (Nipped-B) mutation, the smc3-42 (cohesin) mutation, mcd1-1 (cohesin) and pds5-1 (Pds5 cohesion maintenance factor) mutation in Saccharomyces cerevisiae, and the mis4-242 (Nipped-B) mutation, and rad21-K1 (cohesin) mutation in Schizosaccharomyces pombe. […] Compounds that improved the growth rate and/or growth maxima of one or more of the mutant strains relative to the parental strains were retested. An improvement in growth rate was defined as a reproducible increase in either the rate of cell division of a mutant yeast strain during the logarithmic growth or the maximal culture density or both as determined by taking the optical density of the culture every 30 min relative to a vehicle control, and the wild-type yeast controls. […] For this reason, Indomethacin and Acemetacin were chosen for further evaluation.
# [2] = system: Drosophila ct^K mutation in the cut gene (Nipped-B dosage sensitive); assay: ct^K wing margin-nicking phenotype after feeding larvae; type: in vivo; conditions: in food from early larval stages (hatching) until pupariation; vs solvent control; FIG. 2
# Text: Controls were feed the solvent that was used to dissolve the compounds (DMSO for Indomethacin, PBS for Acemetacin).
# as §1
# [3] = system: Nipped-B mRNA; assay: Nipped-B RNA levels in cultured ML-DmBG3 cells by quantitative RT-PCR; type: cell-based, Drosophila; conditions: FIG. 3; for effect on Nipped-B RNA in Nipped-B RNAi cells: ML-DmBG3 cells treated with double-stranded RNA to destabilize Nipped-B RNA; for Nipped-B gene RNA transcripts: ML-DmBG3 cells, treatment for 48 hours, RpL32 as standard
# Text: as §1
# [4] = system: cohesin-dependent genes; assay: Effect of cohesin depletion on expression of other genes in cultured Drosophila cells; type: cell-based; conditions: not shown
# Text: as §1
# [5] = system: Nipbl mRNA; assay: Nipbl mRNA in C2C12 myogenic cells by RT-PCR; type: cell-based, mouse; conditions: Gapdh as standard, FIG. 4A
# Text: as §1
# (§2) Expression of these and other adipogenic genes is reduced in Nipbl +/− mice (Kawauchi et al. (2009) PLoS Genet.; 5(9):e1000650), which may explain their reduced fat levels, and potentially why individuals with CdLS tend to be lean.
# [6] = system: Myod1; assay: Myod1 expression in C2C12 myogenic cells by RT-PCR; type: cell-based, mouse; conditions: treatment for 3 days, FIG. 4B
# Text: as §1, §2
# [7] = system: Myog; assay: Myog expression in C2C12 myogenic cells by RT-PCR; type: cell-based, mouse; conditions: treatment for 3 days, FIG. 4C
# Text: as §1, §2
# [8] = system: Cepba; assay: Cepba expression in C2C12 myogenic cells by RT-PCR; type: cell-based, mouse; conditions: treatment for 3 days, FIG. 4D
# Text: as §1, §2
# [9] = system: Pparg; assay: Pparg expression in C2C12 myogenic cells by RT-PCR; type: cell-based, mouse; conditions: treatment for 3 days, FIG. 4E
# Text: as §1, §2
# [10] = system: mesenchymal stem cells; conditions: by increasing expression of C/EBPβ and PPARγ2 independently of COX inhibition (Styner et al. 2010); cited from earlier work
# [11] = system: Drosophila N^spl-1 mutation in the Notch receptor gene; assay: N^spl-1 small rough eye phenotype after treatment; type: in vivo; conditions: data not shown
# Text: Potential therapeutic compounds may be assayed for their ability to elevate expression of the Nipped-B gene which will enhance the N^spl-1 phenotype, resulting in a decrease in the size of the eye relative to similar untreated subjects.
# as §1
# The N^spl-1 mutation in the Notch receptor gene causes a small rough eye phenotype. […] (Rollins et a al., (1999) Genetics; 152 (2):577-93).
# [12] = system: Drosophila cells (ML-DmBG3)
SMILES,growth rate and/or growth maxima of mutant yeast strains [1],occurrence of wing nicking defect (ct^K) [2],effect on Nipped-B RNA in Nipped-B RNAi cells [3],Nipped-B gene RNA transcripts [3],effect of cohesin depletion on expression of other genes [4],expression of Nipbl [5],expression of Myod1 myogenic gene [6],expression of Myog myogenic gene [7],expression of Cepba adipogenic gene [8],expression of Pparg adipogenic gene [9],adipogenesis [10],N^spl-1 eye phenotype (eye size) [11],toxicity [12]
COc1ccc2c(c1)c(CC(=O)O)c(C)n2C(=O)c1ccc(Cl)cc1 [Indomethacin],improved the growth of the mutant strains,reducing the occurrence of this developmental defect,blocked by Nipped-B RNAi,increase Nipped-B gene RNA transcripts,reduce the effect of cohesin depletion,increases expression,reduced expression,reduced expression,increased expression,increased expression,promotes adipogenesis,,
COc1ccc2c(c1)c(CC(=O)OCC(=O)O)c(C)n2C(=O)c1ccc(Cl)cc1 [Acemetacin],improved the growth of the mutant strains,reducing the occurrence of this developmental defect,blocked by Nipped-B RNAi,increase Nipped-B gene RNA transcripts,reduce the effect of cohesin depletion,,,,,,,"enhances the N^spl-1 phenotype, decreasing the size of the eye",some toxicity
